Laboratory results from patent publication US12102644B2, “Compounds and methods of promoting myelination” (Case Western Reserve University, priority 2019, dated 2024).
“Also recorded” adds a separate entry of the source. Where two headings read alike, the source gives them in different places. Blank lines part the entries; values can stand above or below the molecule they belong to.

Columns and labels:
rat CYP51 [1] = molecular target: T1, rat CYP51 (Rattus norvegicus, UniProt Q64654); conditions: rat CYP51 enzymatic activity
T1 sequence (Q64654 1-503): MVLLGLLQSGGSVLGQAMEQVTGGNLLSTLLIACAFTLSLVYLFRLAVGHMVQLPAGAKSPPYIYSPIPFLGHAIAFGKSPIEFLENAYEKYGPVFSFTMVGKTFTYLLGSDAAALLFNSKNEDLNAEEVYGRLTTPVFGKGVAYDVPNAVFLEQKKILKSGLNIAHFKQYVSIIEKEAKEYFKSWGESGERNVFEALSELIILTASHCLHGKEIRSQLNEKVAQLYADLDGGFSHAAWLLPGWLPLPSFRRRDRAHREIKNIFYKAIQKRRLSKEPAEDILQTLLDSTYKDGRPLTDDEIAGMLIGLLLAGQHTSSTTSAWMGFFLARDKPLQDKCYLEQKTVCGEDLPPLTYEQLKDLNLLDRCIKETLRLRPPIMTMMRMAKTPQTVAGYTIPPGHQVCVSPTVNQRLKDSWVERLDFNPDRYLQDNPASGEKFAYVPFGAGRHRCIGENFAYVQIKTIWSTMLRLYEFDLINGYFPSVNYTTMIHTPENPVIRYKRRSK

[2] = tested on: mouse epiblast stem cell-derived OPCs; assay: In vitro OPC differentiation assay (percentage of MBP+ oligodendrocytes, high-content imaging); assay type: cell-based; conditions: for formation of MBP+ oligodendrocytes in combination with ketoconazole: co-treatment with ketoconazole 2.5 μM
Procedure: To rigorously assess effects of small molecule and genetic treatments on OPCs, all treatments were assayed in two batches of epiblast stem cell-derived OPCs, and key results were confirmed using mouse primary OPCs. OPCs were generated from two separate EpiSC lines, EpiSC5 (giving rise to OPC-5 OPCs) and 12901 (giving rise to OPC-1 OPCs). EpiSC-derived OPCs were obtained using in vitro differentiation protocols and culture conditions described previously. To ensure uniformity throughout all in vitro screening experiments, EpiSC-derived OPCs were sorted to purity by fluorescence activated cell sorting at passage five with conjugated CD 140a-APC (eBioscience, 17-1401; 1:80) and NG2-AF488 (Millipore, AB[…]; 1:100) antibodies. Sorted batches of OPCs were expanded and frozen down in aliquots. OPCs were thawed into growth conditions for one passage before use in further assays. Cultures were regularly tested and shown to be mycoplasma free. EpiSC-derived OPCs were grown and expanded in poly-ornithine (PO) and laminin-coated flasks with growth medium (DMEM/F12 supplemented with N2-MAX (R&D Systems), B-27 (ThermoFisher), GlutaMax (Gibco), FGF2 ([…], R&D systems, 233-FB-025) and PDGF-AA ([…], R&D systems, 233-AA-050) before harvesting for plating. The cells were seeded onto poly-D-[…]-well CellCarrier plates (PerkinElmer) coated with laminin (Sigma, L2020; 15 μg/ml) using multi-channel pipet. For the experiment, 800,000 cells/mL stock in differentiation medium (DMEM/F12 supplemented with N2-MAX and B-27) was prepared and stored on ice for 2 h. Then, 40,000 cells were seeded per well in differentiation medium and allowed to attach for 30 min before addition of drug. For dose-response testing of all molecules except sterols, a 1000× compound stock in dimethyl sulphoxide (DMSO) was added to assay plates with 0.1 μL solid pin multi-blot replicators (V & P Scientific; VP 409), resulting in a final primary screening concentration of 1×. Sterols were added to cells as an ethanol solution (0.2% final ethanol concentration). Positive control wells (ketoconazole, 2.5 μM) and DMSO vehicle controls were included in each assay plate. Cells were incubated under standard conditions (37° C., 5% CO2) for 3 days and fixed with 4% paraformaldehyde (PFA) in phosphate buffered saline (PBS) for 20 min. Fixed plates were washed with PBS (200 μL per well) twice, permeabilized with 0.1% Triton X-100 and blocked with 10% donkey serum (v/v) in PBS for 40 min. Then, cells were labelled with MBP antibodies (Abcam, ab7349; 1:200) for 16 h at 4° C. followed by detection with Alexa Fluor conjugated secondary antibodies (1:500) for 45 min. Nuclei were visualized by DAPI staining (Sigma; 1 μg/ml). During washing steps, PBS was added using a multi-channel pipet and aspiration was performed using Biotek EL406 washer dispenser (Biotek) equipped with a 96-well aspiration manifold. Plates were imaged on the Operetta High Content Imaging and Analysis system (PerkinElmer) and a set of 6 fields captured from each well resulting in an average of 1200 cells being scored per well. Analysis (PerkinElmer Harmony and Columbus software) began by identifying intact nuclei stained by DAPI; that is, those traced nuclei that were larger than 300 μm^2 in surface area. Each traced nucleus region was then expanded by 50% and cross-referenced with the […] (MBP) stain to identify oligodendrocyte nuclei, and from this the percentage of oligodendrocytes was calculated. In some experiments, the total process length of MBP^+ oligodendrocytes was calculated as previously described.

[3] = tested on: sterol levels in OPCs (cholesterol biosynthesis pathway); assay: GC/MS-based sterol profiling in OPCs; assay type: cell-based, mouse
EBP = molecular target: T2, EBP (Mus musculus, UniProt P70245); assay: EBP enzymatic assay (GC/MS); assay type: biochemical; conditions: small molecules 10 μM, zymostenol 25 μM, 2 h
T2 construct: active EBP was obtained from mouse microsomes; from tissue
T2 sequence (P70245 1-230): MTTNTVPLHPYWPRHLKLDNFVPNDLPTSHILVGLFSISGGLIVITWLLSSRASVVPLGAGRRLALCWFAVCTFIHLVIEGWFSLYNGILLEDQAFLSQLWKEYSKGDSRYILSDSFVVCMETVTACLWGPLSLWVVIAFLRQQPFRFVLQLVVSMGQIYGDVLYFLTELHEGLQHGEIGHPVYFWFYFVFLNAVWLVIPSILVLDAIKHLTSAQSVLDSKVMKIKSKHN

rat CYP51 [4] = molecular target: T1, rat CYP51; assay: biochemical
[5] = 72 h, differentiation-permissive conditions

Molecule: CC(=O)N1CCN(c2ccc(OC[C@@H]3CO[C@](Cn4ccnc4)(c4ccc(Cl)cc4Cl)O3)cc2)CC1 (stereo in doubt) [R-trans-Ketoconazole]
inhibition of mammalian CYP51 in vitro (rat CYP51 [1]): strikingly less effective at inhibiting mammalian CYP51

Molecule: CC(=O)N1CCN(c2ccc(OC[C@H]3CO[C@@](Cn4ccnc4)(c4ccc(Cl)cc4Cl)O3)cc2)CC1 (stereo in doubt) [S-trans-Ketoconazole]
inhibition of mammalian CYP51 in vitro (rat CYP51 [1]): strikingly less effective at inhibiting mammalian CYP51

Molecule: CC(C)CCC[C@@H](C)[C@H]1CC[C@H]2C3=C(CC[C@]12C)[C@@]1(C)CC[C@H](O)CC1=CC3 [8,9-dehydrocholesterol]
formation of MBP+ oligodendrocytes from OPCs [2, 5]: robustly enhanced oligodendrocyte formation

Molecule: CC(C)CCC[C@@H](C)[C@H]1CC=C2C3=C(CC[C@@]21C)[C@@]1(C)CC[C@H](O)C[C@@H]1CC3 [14-dehydrozymostenol, cholesta-8,14-dien-j-ol]
formation of MBP+ oligodendrocytes from OPCs [2, 5]: enhanced the formation of MBP^+ oligodendrocytes

Molecule: Cc1cc(C)c(CNC(=O)c2cc(-c3ccc(CN4CCOCC4)cc3)cc3c2cnn3C2CCCC2)c(=O)[nH]1 [EPZ005687]
formation of MBP+ oligodendrocytes from OPCs [2, 5]: robustly enhanced oligodendrocyte formation
accumulation of sterol intermediates in OPCs (enzyme inhibition in OPCs, e.g. EBP) ([3]; 24 h treatment): uniquely caused accumulation of zymosterol and zymostenol in OPCs
inhibition of EBP enzymatic activity (EBP): directly inhibiting EBP enzymatic activity

Molecule: CC(C)=CCC[C@@H](C)[C@H]1CC=C2C3=C(CC[C@@]21C)[C@@]1(C)CC[C@H](O)C(C)(C)[C@@H]1CC3 [FF-MAS, 4,4-dimethyl-5α-cholesta-8,14,24-trien-3β-ol]
formation of MBP+ oligodendrocytes from OPCs [2, 5]: enhanced oligodendrocyte formation; also recorded: maximally potent enhancers of oligodendrocyte formation among the 8,9-unsaturated sterols tested

Molecule: CC(C)CCC[C@@H](C)[C@H]1CC=C2C3=C(CC[C@@]21C)[C@@]1(C)CC[C@H](O)C(C)(C)[C@@H]1CC3 [MAS-412]
formation of MBP+ oligodendrocytes from OPCs [2, 5]: enhanced oligodendrocyte formation; also recorded: optimal efficacy and potency among all canonical cholesterol biosynthesis intermediates evaluated

Molecule: CC(C)CCC[C@@H](C)[C@H]1CC[C@H]2C3=C(CC[C@]12C)[C@@]1(C)CC[C@H](O)C(C)(C)[C@@H]1CC3 [MAS-414]
formation of MBP+ oligodendrocytes from OPCs [2, 5]: enhanced oligodendrocyte formation; also recorded: optimal efficacy and potency among all canonical cholesterol biosynthesis intermediates evaluated

total cell number (DAPI+ nuclei) ([2]; 3 d differentiation assay): little impact
Molecule: C=CCN(C)CCCCCCOc1ccc(C(=O)c2ccc(Br)cc2)c(F)c1 [Ro 48-8071]
formation of MBP+ oligodendrocytes from OPCs [2, 5]: little impact
formation of MBP+ oligodendrocytes in combination with ketoconazole ([2]; 72 h): completely suppressed ketoconazole's pro-myelinating effects
reduction in lanosterol levels relative to ketoconazole alone ([3]; co-treatment ketoconazole 2.5 μM + Ro 48-8071 11 nM, 24 h): 90%

Molecule: CC(C)=CCC[C@@H](C)[C@H]1CC[C@H]2C3=C(CC[C@]12C)[C@@]1(C)CC[C@H](O)C(C)(C)C1CC3 (some centres unmarked) [T-MAS]
formation of MBP+ oligodendrocytes from OPCs [2, 5]: enhanced oligodendrocyte formation

Molecule: CN1[C@@H]2CC[C@H]1C[C@@H](OC(c1ccccc1)c1ccccc1)C2 [benztropine, Benztropine]
formation of MBP+ oligodendrocytes in combination with ketoconazole ([2]; 72 h): did not enhance differentiation above levels seen for ketoconazole alone
accumulation of sterol intermediates in OPCs (enzyme inhibition in OPCs, e.g. EBP) ([3]; 24 h treatment): induced accumulation of zymostenol and zymosterol and decreased basal sterol levels
inhibition of EBP enzymatic activity (EBP): clear inhibition

accumulation of sterol intermediates in OPCs (enzyme inhibition in OPCs, e.g. EBP) ([3]; 24 h treatment): minimal effects on sterol levels
Molecule: C=C(c1ccc(C(=O)O)cc1)c1cc2c(cc1C)C(C)(C)CCC2(C)C [bexarotene, Bexarotene]

Molecule: CC(C)CCC[C@@H](C)[C@H]1CC[C@H]2[C@@H]3CC=C4C[C@@H](O)CC[C@]4(C)[C@H]3CC[C@]12C [cholesterol, Cholesterol]
formation of MBP+ oligodendrocytes from OPCs [2, 5]: ineffective; also recorded: had no effect on OPCs

Molecule: CN1CCC[C@@H]1CCO[C@](C)(c1ccccc1)c1ccc(Cl)cc1 [clemastine, Clemastine]
formation of MBP+ oligodendrocytes in combination with ketoconazole ([2]; 72 h): did not enhance differentiation above levels seen for ketoconazole alone

IC50 (rat CYP51 [4]): 300 to 700 nM
Molecule: Clc1ccccc1C(c1ccccc1)(c1ccccc1)n1ccnc1 [clotrimazole, Clotrimazole]

inhibition of mammalian CYP51 in vitro (rat CYP51 [1]): did not inhibit mammalian CYP51 in vitro
Molecule: OC(Cn1cncn1)(Cn1cncn1)c1ccc(F)cc1F [fluconazole, Fluconazole]

sterol profile in OPCs at the screening dose (enzyme targeted) ([3]; 2 μM, 24 h): targeted CYP51
Molecule: C[C@]12CC[C@@H]3c4ccc(O)cc4C[C@@H](CCCCCCCCC[S+]([O-])CCCC(F)(F)C(F)(F)F)[C@H]3[C@@H]1CC[C@@H]2O (some centres unmarked) [fulvestrant, Fulvestrant]

Molecule: OCCOCCN1CCN(C(c2ccccc2)c2ccc(Cl)cc2)CC1 (centres unmarked) [hydroxyzine, Hydroxyzine]
inhibition of EBP enzymatic activity (EBP): directly inhibiting EBP enzymatic activity

Molecule: CC(C)=CCC[C@@H](C)[C@H]1CC[C@@]2(C)C3=C(CC[C@]12C)[C@@]1(C)CC[C@H](O)C(C)(C)[C@@H]1CC3 [lanosterol, Lanosterol]
formation of MBP+ oligodendrocytes from OPCs [2, 5]: enhanced formation of MBP^+ oligodendrocytes in a dose-responsive fashion

Molecule: N[C@@H](Cc1cc(I)c(Oc2ccc(O)c(I)c2)c(I)c1)C(=O)O [liothyronine, Liothyronine]
formation of oligodendrocytes in combination with liothyronine ([2]; liothyronine 3 μM combined with sterol-modulating treatments, 72 h): additive effects on oligodendrocyte formation
accumulation of sterol intermediates in OPCs (enzyme inhibition in OPCs, e.g. EBP) [3]: minimal effects on sterol levels

Molecule: OCCOc1ccc(/C(=C(/CCCl)c2ccccc2)c2ccccc2)cc1 [ospemifine, Ospemifene]
formation of MBP+ oligodendrocytes from OPCs [2]: had no effect on OPC differentiation
accumulation of sterol intermediates in OPCs (enzyme inhibition in OPCs, e.g. EBP) [3]: did not inhibit EBP

accumulation of sterol intermediates in OPCs (enzyme inhibition in OPCs, e.g. EBP) ([3]; 24 h treatment): inhibited EBP
Molecule: CN(C)CCOc1ccc(/C(=C(/CCCl)c2ccccc2)c2ccccc2)cc1 [toremifene, Toremifene]
formation of MBP+ oligodendrocytes from OPCs [2, 5]: enhanced MBP^+ oligodendrocyte generation over a wide dose range

Molecule: CC(C)CCC[C@@H](C)[C@H]1CC[C@H]2C3=C(CC[C@]12C)[C@@]1(C)CC[C@H](O)C[C@@H]1CC3 [zymostenol, Zymostenol]
formation of MBP+ oligodendrocytes from OPCs [2, 5]: enhanced the formation of MBP^+ oligodendrocytes; also recorded: enhanced oligodendrocyte formation

Molecule: methyl-β-cyclodextrin
formation of MBP+ oligodendrocytes from OPCs [2, 5]: had no effect on oligodendrocyte formation
cholesterol levels in OPCs ([3]; methyl β-cyclodextrin 1 mM for 30 min): reductions in cholesterol levels comparable to pathway inhibitor treatment
